From patent US20200039939A1, “QUINOLINE AMINES USEFUL AS CYTOPROTECTIVE AGENTS” (priority 2015, published 2020)
pEC50: −log10 of the molar value.

Tests used:
CSM14.1 neuronal cells = test: Cell survival assay (thapsigargin-treated CSM14.1 neuronal cells, CELLTITER-GLO); type: cell-based; details: 2 hrs compound pre-incubation, about 15 μM thapsigargin, overnight, luminescence
Description: CSM14.1 neuronal cells were maintained in Complete Medium at 32° C.; wherein the Complete Medium contained Dulbecco's modified eagle medium (DMEM) with 10% fetal bovine serum (FSB), 1% L-glutamine, 100 IU/mL penicillin, and 100 μg/mL streptomycin. The cells were recovered from cultures by trypsinization and then seeded in 384 well plates (Greiner #781098) at a concentration of 1,000 cells/well in 20 μL of DMEM Assay Medium, wherein the DMEM Assay Medium contained 2% FBS, 100 IU/mL penicillin, and 100 μg/mL streptomycin. Seeding was performed using a MultiDrop Combi reagent broadcaster. The plates were incubated overnight at 32° C. A test compound was prepared by 2-fold serial dilution in 100% DMSO using a BIOMEK® 2000 liquid handler (Beckman Coulter). A dose-response curve containing 10 concentrations of the test compound was obtained. Using a BIOMEK® FX liquid handler (Beckman Coulter), 2.5 μL of the test compound was transferred from the 100% DMSO serial dilution plate to an intermediate plate containing 47.5 μL of DMEM Assay Medium containing 2% FBS, 100 IU/mL penicillin, and 100 μg/mL streptomycin and mixed. To reduce or eliminate the interference from the compound's precipitation, 6 μL of the diluted compound was immediately transferred to the assay plate to achieve a high compound concentration of 100 µM in 99% DMEM Assay Medium and 1% DMSO. After the assay plates were incubated for 2 hrs, 4 μL of 112.5 μM thapsigargin (TG) (DMSO stock diluted into Assay TC Medium) was dispensed into each testing well with a MultiDrop Combi reagent broadcaster for a final concentration of about 15 μM TG. The tissue culture media (4 μL) containing vehicle only was transferred manually to each control cell using a 16 channel electronic pipette. After the plates were incubated overnight (about 16 to 24 hrs), CELLTITER-GLO® (Promega) (16 μL) was added to all wells and luminescence was measured. High luminescence indicates cell survival. The biological results are summarized in Table 1 where A represents a cell viability EC50 less than 10 μM and B represents a value greater than 10 μM and less than 20 μM.

[1] = system: Human embryonic kidney (HEK293) cells / mouse neuroblastoma (N2a) cells; test: Cell rescue assay: protection against thapsigargin (TG)-induced cell-death (ALAMARBLUE); type: cell-based; details: compound 20 μM, 2 hrs before thapsigargin (15 μM HEK293, 1 μM N2a), 24 hrs, viability as % RFU of control, read-out: Cell Survival %
Description: Protection against Thapsigargin (TG)-induced Cell-death. Human embryonic kidney (HEK293) cells were grown in Dulbecco's Modified Eagle's Medium (DMEM) with 10% FBS and 1% antibiotic antimycotic solution (ABAM). Mouse neuroblastoma (N2a) cells were grown in 1:1 DMEM:OPTI-MEM® with 5% FBS and 1% ABAM. All cells were grown in 10% CO2 in a humidified environment of the incubator. Cells grown in 96-well plates were exposed to a test compound (20 μM) for 2 hrs before addition of thapsigargin (15 μM for HEK293 cells and 1 μM for N2a cells) to induce ER stress. After incubation in cell-culture incubator for 24 hrs, ALAMARBLUE® regent (10% v/v) was added to the wells. Fluorescence reading was taken 2 hrs after the addition of the ALAMARBLUE® regent. Cell-viability was calculated as a percentage of relative fluorescence unit (RFU) compared to control. […] The biological results are summarized in Table 2, where each compound was tested at 20 μM and where A represents a viability greater than 50%, B represents a viability greater than 10% and less than 50%, C represents a value below 10%.

Human SH-SY5Y cells = test: Cell rescue assay: protection against amyloid (AB1-42)-induced cell toxicity; type: cell-based; details: 96 h, 7.5 uM compound (final), AB1-42 at 10 uM, 4 days, OD 490 nm, read-out: Cell Survival % (cell rescue)
Description: Protection against 1-amyloid-induced cell toxicity. Chonpathompikunlert et al. Eu. J. Pharmacol. 2011, 650, 544-549. Human SH-SY5Y cells are suspended in media containing 2% FBS and 2× Gentamicin. Transfer 100 ul/well culture to 96-well plate (20,000 cells/well; passage #5) and incubate overnight. Prepare compound samples at 30 uM. Add 50 ul of the samples to the cells [[…]] and incubate 3 hours. Make stock of 40 uM AB1-42 peptide in assay media. Transfer 50 ul/well to cells/compounds in assay plate. The final assay volume is 200 ul/well, containing 2% FBS, 2× Gentamicin, 7.5 uM compound and AB1-42 at 10 uM. Incubate for 4 days then add 20 ul of Promega Substrate Cell Titer 96 Aqueous One Solution Reagent to each well. Incubate 37° C. and read OD at 490 nm. The results are summarized in Table 3, where A represents a value greater than 40% cell rescue, B represents a value greater than 10% and less than or equal to 40% cell rescue, and C represents a value greater than 1% and less than or equal to 10% cell rescue.

SERCA = target: T1, SERCA (Homo sapiens, UniProt P16615); test: Ca-ATPase assay (NADH-linked, enzyme-coupled ATPase assay); type: biochemical; details: microsomal preparations from HEK 293 cells, Vmax from Hill fit of ATPase calcium-dependence, relative to controls
T1 construct: microsomal preparations from HEK 293 cells; endogenous in cells; host or cells: HEK 293 cells (microsomal preparation)
Description: A Ca-ATPase assay was performed using microsomal preparations from HEK 293 cells at a series of calcium concentrations corresponding to the physiological range, relative to controls. The ATP hydrolysis rate was measured over a range of calcium concentrations in the presence of test compounds using an NADH-linked, enzyme-coupled ATPase assay adapted for 96-well microplates, with Vmax determined by fitting the ATPase calcium-dependence to the Hill function. Each well contained 2 μg or 7 μg of SR vesicles (optimized for skeletal or cardiac SR, respectively), 50 mM MOPS (pH 7.0), 100 mM KCl, 5 mM MgCl2, 1 mM EGTA, 0.2 mM NADH, 1 mM phosphoenol pyruvate, 5 IU pyruvate kinase, 5 IU lactate dehydrogenase, and 3.5 μg/mL A23187 (a calcium ionophore). CaCl2 was added to set free [Ca^2+] to the specific values. The assay was started upon addition of ATP at a final concentration of 5 mM, and read in a SpectraMax Plus microplate spectrophotometer. The results are summarized in Table 4, where A represents an increase in SERCA Vmax greater than or equal to 50% and B represents a value greater than 10% and less than 50%.

Ob/ob mice = test: Effect of a SERCA agonist on the level of blood glucose; type: in vivo; details: Mus musculus, ip, 96 h, 50 mg/kg i.p. once a day for 5 days, fasting glucose at baseline and 4 days after administration, read-out: Glucose level reduction
Description: Ob/ob mice (10 weeks old, n=7) were intraperitoneally (i.p.) injected with 100 μL of a solution containing 0 (vehicle) or 50 mg/kg of a test compound once a day for a total of 5 days. Fasting glucose was measured at baseline and 4 days after the administration of the test compound. Glucose levels were measured in blood samples drawn from the tail vein using a handheld glucose sensor. Compound effects on blood glucose are shown in Table 5 where A represents a 10-20% reduction in blood glucose, B represents a 21-30% reduction in blood glucose, and C represents a greater than 30% reduction in blood glucose levels.

T1 sequence (P16615 whole entry): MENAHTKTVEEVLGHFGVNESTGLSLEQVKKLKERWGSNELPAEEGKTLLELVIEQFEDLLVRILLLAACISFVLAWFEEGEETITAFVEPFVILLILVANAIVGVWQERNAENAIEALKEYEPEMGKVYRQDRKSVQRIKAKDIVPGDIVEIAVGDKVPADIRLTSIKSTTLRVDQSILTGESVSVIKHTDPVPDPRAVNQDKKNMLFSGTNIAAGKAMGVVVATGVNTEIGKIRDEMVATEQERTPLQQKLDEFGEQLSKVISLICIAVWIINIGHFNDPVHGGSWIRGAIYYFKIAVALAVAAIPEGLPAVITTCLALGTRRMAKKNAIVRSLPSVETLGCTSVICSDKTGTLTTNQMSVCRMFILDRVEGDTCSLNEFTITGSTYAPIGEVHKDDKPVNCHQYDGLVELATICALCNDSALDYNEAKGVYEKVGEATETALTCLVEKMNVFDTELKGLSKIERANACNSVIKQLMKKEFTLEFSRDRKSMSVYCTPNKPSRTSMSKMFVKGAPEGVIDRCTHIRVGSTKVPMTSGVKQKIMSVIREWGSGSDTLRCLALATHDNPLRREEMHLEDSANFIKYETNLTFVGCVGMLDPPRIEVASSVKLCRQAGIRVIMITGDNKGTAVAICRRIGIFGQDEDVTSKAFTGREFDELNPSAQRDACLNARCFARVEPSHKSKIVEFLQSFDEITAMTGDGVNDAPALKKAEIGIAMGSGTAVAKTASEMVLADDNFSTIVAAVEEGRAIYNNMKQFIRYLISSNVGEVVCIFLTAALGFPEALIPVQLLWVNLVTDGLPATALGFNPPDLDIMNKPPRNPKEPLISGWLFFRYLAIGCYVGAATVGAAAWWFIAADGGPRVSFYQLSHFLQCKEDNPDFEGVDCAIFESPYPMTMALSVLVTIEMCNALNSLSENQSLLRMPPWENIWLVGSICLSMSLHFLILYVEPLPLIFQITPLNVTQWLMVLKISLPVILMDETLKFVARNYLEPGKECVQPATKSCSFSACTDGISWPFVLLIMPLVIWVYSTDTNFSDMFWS

Cc1ccc2cccc(NCc3ccc(OC(C)C)cc3)c2n1 [C1, N-(4-Isopropoxybenzyl)-2-methylquinolin-8-amine]
pEC50 (CSM14.1 neuronal cells): > 5.00 | viability at 20 µM [1]: > 50% | viability at 7.5 µM (Human SH-SY5Y cells): > 40% | SERCA Vmax Increase (SERCA): B (B represents a value greater than 10% and less than 50%) | inhibition in vivo at 50 mg/kg (Ob/ob mice): > 30%

Cc1ccc2cccc(NCc3ccc(Cl)cc3)c2n1 [C4, N-(4-Chlorobenzyl)-2-methylquinolin-8-amine]
pEC50 (CSM14.1 neuronal cells): > 5.00 | viability at 20 µM [1]: > 50% | viability at 7.5 µM (Human SH-SY5Y cells): > 40% | SERCA Vmax Increase (SERCA): A (A represents an increase in SERCA Vmax greater than or equal to 50%) | inhibition in vivo at 50 mg/kg (Ob/ob mice): 10 to 20%

COc1c(C)cccc1CNc1cccc2ccc(C)nc12 [C5, N-(2-Methoxy-3-methyl)-2-methylquinolin-8-amine]
pEC50 (CSM14.1 neuronal cells): 4.70 to 5.00 | viability at 20 µM [1]: 10 to 50% | viability at 7.5 µM (Human SH-SY5Y cells): 1 to 10% | SERCA Vmax Increase (SERCA): A (A represents an increase in SERCA Vmax greater than or equal to 50%) | inhibition in vivo at 50 mg/kg (Ob/ob mice): 21 to 30%

Cc1ccc2cccc(NCc3cc4ccccc4s3)c2n1 [C10, N-(Benzo[b]thiophen-2-ylmethyl)-2-methylquinolin-8-amine]
pEC50 (CSM14.1 neuronal cells): 4.70 to 5.00 | viability at 20 µM [1]: 10 to 50% | viability at 7.5 µM (Human SH-SY5Y cells): 10 to 40% | SERCA Vmax Increase (SERCA): B (B represents a value greater than 10% and less than 50%) | inhibition in vivo at 50 mg/kg (Ob/ob mice): 21 to 30%

Cc1ccc2cccc(NCc3ccc(C)o3)c2n1 [C9, N-((5-Methylfuran-2-yl)methyl)-2-methylquinolin-8-amine]
pEC50 (CSM14.1 neuronal cells): 4.70 to 5.00 | viability at 20 µM [1]: < 10% | viability at 7.5 µM (Human SH-SY5Y cells): 1 to 10% | SERCA Vmax Increase (SERCA): B (B represents a value greater than 10% and less than 50%) | inhibition in vivo at 50 mg/kg (Ob/ob mice): 21 to 30%

Cc1ccc2cccc(NCc3cc(Br)cs3)c2n1 [C2, N-((4-Bromothiophen-2-yl)methyl)-2-methylquinolin-8-amine]
pEC50 (CSM14.1 neuronal cells): > 5.00 | viability at 20 µM [1]: 10 to 50% | viability at 7.5 µM (Human SH-SY5Y cells): 10 to 40% | SERCA Vmax Increase (SERCA): B (B represents a value greater than 10% and less than 50%) | inhibition in vivo at 50 mg/kg (Ob/ob mice): 21 to 30%

Cc1ccc2cccc(NCc3ccc(C(F)(F)F)cc3)c2n1 [C6, N-(4-Trifluoromethylbenzyl)-2-methylquinolin-8-amine]
pEC50 (CSM14.1 neuronal cells): > 5.00 | viability at 20 µM [1]: > 50% | viability at 7.5 µM (Human SH-SY5Y cells): > 40% | SERCA Vmax Increase (SERCA): B (B represents a value greater than 10% and less than 50%) | inhibition in vivo at 50 mg/kg (Ob/ob mice): 10 to 20%

Cc1ccc2cccc(NCc3ccc(C#N)cc3)c2n1 [C7, N-(4-Cyanobenzyl)-2-methylquinolin-8-amine]
pEC50 (CSM14.1 neuronal cells): 4.70 to 5.00 | viability at 20 µM [1]: < 10% | viability at 7.5 µM (Human SH-SY5Y cells): 10 to 40% | SERCA Vmax Increase (SERCA): B (B represents a value greater than 10% and less than 50%) | inhibition in vivo at 50 mg/kg (Ob/ob mice): 10 to 20%

Cc1ccc2cccc(NCc3ccc(Br)s3)c2n1 [C3, N-((5-Bromothiophen-2-yl)methyl)-2-methylquinolin-8-amine]
pEC50 (CSM14.1 neuronal cells): > 5.00 | viability at 20 µM [1]: > 50% | viability at 7.5 µM (Human SH-SY5Y cells): > 40% | SERCA Vmax Increase (SERCA): B (B represents a value greater than 10% and less than 50%) | inhibition in vivo at 50 mg/kg (Ob/ob mice): 21 to 30%

Cc1ccc2cccc(NCc3ccc(C)s3)c2n1 [C8, N-((5-Methylthiophen-2-yl)methyl)-2-methylquinolin-8-amine]
pEC50 (CSM14.1 neuronal cells): > 5.00 | viability at 20 µM [1]: 10 to 50% | viability at 7.5 µM (Human SH-SY5Y cells): > 40% | SERCA Vmax Increase (SERCA): B (B represents a value greater than 10% and less than 50%) | inhibition in vivo at 50 mg/kg (Ob/ob mice): > 30%
